Data reported in PubChem BioAssay AID248 (DTP/NCI, 2004).
Values joined by “and” are separate entries in the source; they are usually repeats but may differ in a detail not shown here. Identical values can stand only once. Inconclusive results and toxic doses are left out. No stated cut-off is given here; in the data, active means T/C of 150% or more; inactive means T/C below 125%.

Test system: L1210 leukemia ip in BDF1 mice, survival T/C
Assay: NCI In Vivo Anticancer Drug Screen. Data for tumor model L1210 Leukemia (intraperitoneal) in B6D2F1 (BDF1) mice
Settings: endpoint: mean survival time, higher = longer survival
Procedure, shortened: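 In this screen, tumor-bearing mice given compound are compared to those given vehicle, and their survival values are reported as a treated-to-control quotient.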

[1] = dose: 100.0 mg/kg/injection, schedule: Q01DX009 (ip), vehicle: Klucel (hydroxypropylcellulose) (HPC)
[2] = dose: 100.0 mg/kg/injection, schedule: Q04DX003 (ip), vehicle: Klucel (hydroxypropylcellulose) (HPC)
[3] = dose: 200.0 mg/kg/injection, schedule: Q01DX009 (ip), vehicle: Klucel (hydroxypropylcellulose) (HPC)
[4] = dose: 200.0 mg/kg/injection, schedule: Q04DX003 (ip), vehicle: Klucel (hydroxypropylcellulose) (HPC)
[5] = dose: 400.0 mg/kg/injection, schedule: Q01DX009 (ip), vehicle: Klucel (hydroxypropylcellulose) (HPC)
[6] = dose: 400.0 mg/kg/injection, schedule: Q04DX003 (ip), vehicle: Klucel (hydroxypropylcellulose) (HPC)
[7] = dose: 100.0 mg/kg/injection, schedule: Q01DX009 (ip), vehicle: saline with Tween-80
[8] = dose: 200.0 mg/kg/injection, schedule: Q01DX009 (ip), vehicle: saline with Tween-80
[9] = dose: 100.0 mg/kg/injection, schedule: Q04DX003 (ip), vehicle: saline
[10] = dose: 100.0 mg/kg/injection, schedule: Q04DX003 (ip), vehicle: saline with Tween-80
[11] = dose: 200.0 mg/kg/injection, schedule: Q04DX003 (ip), vehicle: saline with Tween-80
[12] = dose: 400.0 mg/kg/injection, schedule: Q04DX003 (ip), vehicle: saline with Tween-80
[13] = dose: 100.0 mg/kg/injection, schedule: Q04DX002 (ip), vehicle: saline with Tween-80
[14] = dose: 200.0 mg/kg/injection, schedule: Q04DX002 (ip), vehicle: saline with Tween-80
[15] = dose: 100.0 mg/kg/injection, schedule: Q04DX002 (ip), vehicle: saline
[16] = dose: 200.0 mg/kg/injection, schedule: Q04DX002 (ip), vehicle: saline
[17] = dose: 400.0 mg/kg/injection, schedule: Q04DX002 (ip), vehicle: saline

Measured: T/C

O=C(Nc1cccc(O)c1)Nc1cc([N+](=O)[O-])ccc1F
inactive: dose: 100.0 mg/kg/injection, schedule: Q01DX001 (ip), vehicle: Klucel (hydroxypropylcellulose) (HPC) 91 % of control | [1] 100 % of control and 90 % of control | [2] 93 % of control | dose: 200.0 mg/kg/injection, schedule: Q01DX001 (ip), vehicle: Klucel (hydroxypropylcellulose) (HPC) 98 % of control | [3] 94 % of control and 95 % of control | [4] 102 % of control | dose: 400.0 mg/kg/injection, schedule: Q01DX001 (ip), vehicle: Klucel (hydroxypropylcellulose) (HPC) 94 % of control | [5] 94 % of control and 100 % of control | [6] 95 % of control

COc1cc(/C=N\NC(=O)CNC(=O)Nc2cccc(Cl)c2)ccc1O
inactive: [7] 90 % of control | [8] 87 % of control

COc1cc(/C=C\C(=O)c2ccccc2)c([N+](=O)[O-])cc1OC
inactive: dose: 100.0 mg/kg/injection, schedule: Q01DX001 (ip), vehicle: water 90 % of control | dose: 200.0 mg/kg/injection, schedule: Q01DX001 (ip), vehicle: water 88 % of control | dose: 400.0 mg/kg/injection, schedule: Q01DX001 (ip), vehicle: water 90 % of control

CC1CC(C)(C)[N+](C)=C(CC(C)(C)O)O1 (stereo not drawn)
inactive: [9] 113 % of control

Nc1nc(N)c2nc(CNc3ccc(S(=O)(=O)NC(CCC(=O)O)C(=O)O)cc3)cnc2n1 (stereo not drawn)
inactive: dose: 20.0 mg/kg/injection, schedule: Q01DX009 (ip), vehicle: Klucel (hydroxypropylcellulose) (HPC) 114 % of control | dose: 40.0 mg/kg/injection, schedule: Q01DX009 (ip), vehicle: Klucel (hydroxypropylcellulose) (HPC) 119 % of control | dose: 80.0 mg/kg/injection, schedule: Q01DX009 (ip), vehicle: Klucel (hydroxypropylcellulose) (HPC) 124 % of control | [3] 120 % of control

COc1ccc(NC(=O)C(c2ccccc2)c2ccccc2)cc1
inactive: [10] 92 % of control | [11] 93 % of control | [12] 92 % of control

O=CC(OC(=O)c1ccccc1)C(OC(=O)c1ccccc1)C(COC(c1ccccc1)(c1ccccc1)c1ccccc1)OC(=O)c1ccccc1 (stereo not drawn)
inactive: dose: 50.0 mg/kg/injection, schedule: Q01DX001 (ip), vehicle: carboxymethylcellulose (CMC) 97 % of control | dose: 100.0 mg/kg/injection, schedule: Q01DX001 (ip), vehicle: carboxymethylcellulose (CMC) 103 % of control | dose: 200.0 mg/kg/injection, schedule: Q01DX001 (ip), vehicle: carboxymethylcellulose (CMC) 103 % of control | dose: 400.0 mg/kg/injection, schedule: Q01DX001 (ip), vehicle: carboxymethylcellulose (CMC) 91 % of control

CC(C(O)c1ccncc1)[N+](=O)[O-] (stereo not drawn)
inactive: [13] 92 % of control | [14] 107 % of control | dose: 400.0 mg/kg/injection, schedule: Q04DX002 (ip), vehicle: saline with Tween-80 92 % of control

NC(=O)C(N)CO (stereo not drawn)
inactive: [15] 96 % of control | [16] 104 % of control | [17] 111 % of control

C=CCNC(=S)Nc1ccc(OC(=O)NC(C)(C)C)cc1
inactive: [1] 94 % of control | [3] 95 % of control | [5] 89 % of control

O=CC(O)C(O)C(O)C(O)COC(=S)OCC(O)C(O)C(O)C(O)C=O (stereo not drawn) (tested in a mixture with another compound)
inactive: [15] 110 % of control | [16] 100 % of control | [17] 95 % of control

COC(=O)C(C)CC(C)(C=O)OC (stereo not drawn)
inactive: [9] 93 % of control | dose: 200.0 mg/kg/injection, schedule: Q04DX003 (ip), vehicle: saline 89 % of control | dose: 400.0 mg/kg/injection, schedule: Q04DX003 (ip), vehicle: saline 89 % of control

C[n+]1ccccc1/C=C/c1csc2ccccc12
inactive: dose: 5.0 mg/kg/injection, schedule: Q01DX001 (ip), vehicle: carboxymethylcellulose (CMC) 100 % of control | dose: 10.0 mg/kg/injection, schedule: Q01DX001 (ip), vehicle: carboxymethylcellulose (CMC) 102 % of control | dose: 20.0 mg/kg/injection, schedule: Q01DX001 (ip), vehicle: carboxymethylcellulose (CMC) 100 % of control | dose: 40.0 mg/kg/injection, schedule: Q01DX001 (ip), vehicle: carboxymethylcellulose (CMC) 100 % of control | dose: 80.0 mg/kg/injection, schedule: Q01DX001 (ip), vehicle: carboxymethylcellulose (CMC) 107 % of control

O=C(Nc1ccc(NC(=O)Nc2cc(C3=NCCN3)cc(C3=NCCN3)c2)cc1)Nc1cc(C2=NCCN2)cc(C2=NCCN2)c1
inactive: dose: 15.0 mg/kg/injection, schedule: Q01DX Z (ip), vehicle: saline 90 % of control

CN(C)C(=O)c1ccc(O)cc1
inactive: [2] 104 % of control | [4] 92 % of control | [6] 97 % of control

O=S(=O)(CCCl)Cc1ccccc1
inactive: [13] 115 % of control | [14] 94 % of control

CC(C)(C)c1ccc(OC(=S)Nc2ccccc2)cc1
inactive: [10] 111 % of control | [11] 111 % of control | [12] 103 % of control

Cc1ccc(NC(=O)N(CCO)C2CCCCC2)c([N+](=O)[O-])c1
inactive: [2] 87 % of control | [4] 98 % of control | [6] 96 % of control

O=C(NC1C=CCCC1)c1ccccc1 (stereo not drawn)
inactive: dose: 50.0 mg/kg/injection, schedule: Q01DX009 (ip), vehicle: saline with Tween-80 102 % of control | [7] 96 % of control | [8] 96 % of control

CN(C)CC1CCC(CN(C)C)C1=O (stereo not drawn)
inactive: dose: 9.38 mg/kg/injection, schedule: Q01DX001 (ip), vehicle: other 106 % of control | dose: 9.38 mg/kg/injection, schedule: Q01DX001 (ip), vehicle: saline 104 % of control | dose: 18.75 mg/kg/injection, schedule: Q01DX001 (ip), vehicle: other 101 % of control | dose: 18.75 mg/kg/injection, schedule: Q01DX001 (ip), vehicle: saline 103 % of control | dose: 37.5 mg/kg/injection, schedule: Q01DX001 (ip), vehicle: other 115 % of control

CCCOC(=O)C#CC(=O)OCCC
inactive: dose: 1.56 mg/kg/injection, schedule: Q01DX001 (ip), vehicle: carboxymethylcellulose (CMC) 101 % of control | dose: 1.56 mg/kg/injection, schedule: Q01DX009 (ip), vehicle: carboxymethylcellulose (CMC) 93 % of control | dose: 1.56 mg/kg/injection, schedule: Q04DX002 (ip), vehicle: carboxymethylcellulose (CMC) 92 % of control and 98 % of control | dose: 1.56 mg/kg/injection, schedule: Q04DX003 (ip), vehicle: carboxymethylcellulose (CMC) 101 % of control | dose: 3.13 mg/kg/injection, schedule: Q01DX001 (ip), vehicle: carboxymethylcellulose (CMC) 94 % of control | dose: 3.13 mg/kg/injection, schedule: Q01DX009 (ip), vehicle: carboxymethylcellulose (CMC) 92 % of control and 86 % of control | dose: 3.13 mg/kg/injection, schedule: Q04DX002 (ip), vehicle: carboxymethylcellulose (CMC) 92 % of control and 98 % of control | dose: 3.13 mg/kg/injection, schedule: Q04DX003 (ip), vehicle: carboxymethylcellulose (CMC) 98 % of control | dose: 6.25 mg/kg/injection, schedule: Q01DX001 (ip), vehicle: carboxymethylcellulose (CMC) 97 % of control | dose: 6.25 mg/kg/injection, schedule: Q01DX009 (ip), vehicle: carboxymethylcellulose (CMC) 93 % of control and 89 % of control | dose: 6.25 mg/kg/injection, schedule: Q04DX002 (ip), vehicle: carboxymethylcellulose (CMC) 103 % of control and 104 % of control | dose: 6.25 mg/kg/injection, schedule: Q04DX003 (ip), vehicle: carboxymethylcellulose (CMC) 106 % of control
